Source: paper PMC9137581, “Identification of a Novel Class of Anti-Melanogenic Compounds, (Z)-5-(Substituted benzylidene)-3-phenyl-2-thioxothiazolidin-4-one Derivatives, and Their Reactive Oxygen Species Scavenging Activities” (Antioxidants, 2022)

Assays:
mushroom tyrosinase = molecular target: T1, mushroom tyrosinase (Agaricus bisporus, UniProt C7FF04); experiment: Mushroom tyrosinase inhibition assay (L-tyrosine substrate); type: biochemical; details: for IC50: L-tyrosine substrate, means ± SEMs of triplicate determinations; for potency of mushroom tyrosinase inhibition relative to kojic acid: ratio of IC50 values versus kojic acid
T1 construct: purchased Sigma-Aldrich
T1 sequence (C7FF04 1-392 limits assumed): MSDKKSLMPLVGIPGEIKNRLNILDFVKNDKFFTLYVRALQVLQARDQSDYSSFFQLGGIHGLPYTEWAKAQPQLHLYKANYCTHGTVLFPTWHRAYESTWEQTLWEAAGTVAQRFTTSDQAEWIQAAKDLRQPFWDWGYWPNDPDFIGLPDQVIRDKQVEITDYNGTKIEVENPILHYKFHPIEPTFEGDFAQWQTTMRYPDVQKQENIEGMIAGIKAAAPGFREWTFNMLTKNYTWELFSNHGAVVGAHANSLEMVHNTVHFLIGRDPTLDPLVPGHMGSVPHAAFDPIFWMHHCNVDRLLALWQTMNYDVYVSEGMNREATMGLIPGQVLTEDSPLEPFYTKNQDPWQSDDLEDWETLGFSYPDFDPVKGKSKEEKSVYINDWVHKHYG
Experimental: In order to examine the inhibitory effect of the (Z)-BPTT analogs on tyrosinase activity, commercially available mushroom tyrosinase (Sigma-Aldrich, St. Louis, MO, USA) was used. The mushroom tyrosinase-inhibitory activities of the analogs were determined as described previously with modification. Briefly, 20 µL (20 units) of an aqueous mushroom tyrosinase solution was added to each well of a 96-well microplate containing 170 µL of a substrate mixture consisting of 345 μM of L-tyrosine solution, 17.2 mM phosphate buffer (pH 6.5), and 10 µL of a (Z)-BPTT analog solution at different concentrations or 10 µL of a kojic acid solution (2, 10, or 50 μM). After incubating the assay mixtures for 30 min at 37 °C, the remaining tyrosinase activities were calculated from the amounts of dopachrome that were formed as determined by measuring their absorbance at 492 nm using a microplate reader (VersaMax™, Molecular Devices, Sunnyvale, CA, USA). The curves of the IC50 values that were derived from the X-axis of the inhibitor concentration versus the amount of product that was produced were determined by aligning the dose–response curve with the Y-axis. Inhibition experiments were performed in triplicate using three to six different concentrations of the (Z)-BPTT analogs or kojic acid. Log–linear curves and their equations were determined by using inhibition percentages at three to six analog concentrations. The individual IC50 values were determined by reading the concentrations on the Y-axis at 50% inhibition. The results are the means of three independent experiments.
The tyrosinase-inhibitory activities were screened against mushroom tyrosinase using L-tyrosine as a substrate, as previously described. Kojic acid, a representative tyrosinase inhibitor, was used as a positive control. […]. All 13 of the (Z)-BPTT analogs inhibited tyrosinase activity in a concentration-dependent manner. The IC50 values are shown in Table 2, along with the analog substitutions.

B16F10 cells = experiment: Melanin content assay in α-MSH plus IBMX-stimulated cells; type: cell-based, murine; details: for reduction of α-MSH plus IBMX-induced increase in melanin content: 48 h, B16F10 cells; for effect on melanin content compared with kojic acid: analog at 5 µM
Experimental: Briefly, B16F10 cells were seeded at a density of 1 × 10^5 cells per well in 6-well plates and allowed to adhere to the well bases under the same conditions that were used for cell culturing. […] In order to determine the melanin contents, the B16F10 cells that were exposed to α-MSH and IBMX for 48 h were rinsed with PBS twice and incubated in 200 µL of 1 N NaOH solution containing 10% dimethyl sulfoxide (DMSO) for 1 h at 60 °C. The cell lysates were transferred to a 96-well plate and the absorbances at 405 nm were measured using a microplate reader (VersaMax™, Molecular Devices, Sunnyvale, CA, USA). These experiments were performed individually in triplicate. B16F10 cells were seeded in 6-well culture plates and pretreated with analogs 1, 3, and 6 at concentrations of 0, 5, 10, or 20 µM and with analog 2 at 0, 2.5, 5, or 10 µM for 1 h. α-Melanocyte-stimulating hormone (α-MSH; 1 µM) and 3-isobutyl-1-methylxanthine (IBMX; 200 µM) were added sequentially in order to enhance melanin production. After incubation for 48 h at 37 °C, the melanin contents were assessed by measuring the well optical densities at 405 nm using a microplate reader. Kojic acid (10 or 20 µM) was used as a positive control.

[1] = molecular target: T2, cellular tyrosinase in B16F10 cells (Mus musculus, UniProt P11344); experiment: Cellular tyrosinase activity (L-DOPA oxidation in lysates); type: cell-based, murine; details: for inhibition of α-MSH plus IBMX-induced cellular tyrosinase activity compared with kojic acid: analog at 20 µM
T2 construct: endogenous in cells; host or cells: B16F10 murine melanoma cells (ATCC), stimulated with α-MSH and IBMX
T2 sequence (P11344 19-533): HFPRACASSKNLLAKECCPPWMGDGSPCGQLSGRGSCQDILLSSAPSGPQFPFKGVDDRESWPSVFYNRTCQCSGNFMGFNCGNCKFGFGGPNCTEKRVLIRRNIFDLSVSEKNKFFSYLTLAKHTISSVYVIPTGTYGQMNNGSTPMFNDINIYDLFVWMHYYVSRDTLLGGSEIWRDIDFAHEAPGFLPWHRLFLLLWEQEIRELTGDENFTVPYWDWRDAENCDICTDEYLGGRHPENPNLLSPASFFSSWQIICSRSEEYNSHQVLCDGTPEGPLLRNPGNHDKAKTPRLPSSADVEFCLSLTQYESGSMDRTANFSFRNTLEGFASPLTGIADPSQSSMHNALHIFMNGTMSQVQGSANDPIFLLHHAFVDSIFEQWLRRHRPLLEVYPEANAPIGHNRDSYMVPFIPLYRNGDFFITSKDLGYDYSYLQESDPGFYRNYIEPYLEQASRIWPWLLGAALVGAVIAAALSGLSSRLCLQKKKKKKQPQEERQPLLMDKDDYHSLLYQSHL
Experimental: The cellular tyrosinase activity was examined by assessing the oxidation rate of L-DOPA, as was previously described, with a slight modification. In brief, B16F10 cells were seeded at a density of 1 × 10^5 cells/well in a 6-well plate and allowed to adhere to the well bases using the same conditions that were used for cell culturing. […] After incubation for 48 h under the same conditions that were used for cell culturing, the cells were rinsed twice with PBS and then exposed to 100 µL of a lysis buffer solution (90 µL of 50 mM phosphate buffer in pH 6.5, 5 µL of 2 mM PMSF, and 5 µL of 20% Triton X-100) and held for 30 min at −80 °C. After defrosting, the cell lysates were centrifuged at 12,000 rpm for 30 min at 4 °C. Then, 10 mM L-DOPA (20 µL) was mixed with the supernatants (80 µL) of the lysates in a 96-well plate. The absorbances of these mixtures were measured at 492 nm every 10 min for 1 h at 37 °C using a microplate reader (VersaMax™, Molecular Devices, Sunnyvale, CA, USA). All of these experiments were conducted individually in triplicate. […] Briefly, B16F10 cells were seeded in 6-well culture plates and pretreated with four different concentrations (0, 5, 10, or 20 µM) of each of the four analogs for 1 h, and then the cells were co-stimulated with α-MSH and IBMX for 48 h at 37 °C so as to increase their cellular tyrosinase activity. Their optical densities (ODs) were then measured using a microplate reader at 492 nm in order to quantify the dopachrome production. The inhibitory effect of each analog on cellular tyrosinase activity was evaluated using these ODs. Kojic acid (20 µM) was used as a positive control.

Row | SMILES | IC50 (mushroom tyrosinase) [µM] | potency of mushroom tyrosinase inhibition relative to kojic acid (mushroom tyrosinase) [fold] | reduction of α-MSH plus IBMX-induced increase in melanin content (B16F10 cells; 20 µM) [%] | effect on melanin content compared with kojic acid (B16F10 cells) | inhibition of α-MSH plus IBMX-induced cellular tyrosinase activity compared with kojic acid [1] | melanin suppression relative to kojic acid at 10 µM (B16F10 cells; 10 µM) [fold] | reduction of α-MSH plus IBMX-induced increase in melanin content (B16F10 cells; 10 µM) [%] | suppression of α-MSH plus IBMX-induced melanogenesis compared with kojic acid (B16F10 cells; analog at 2.5 µM) | cellular tyrosinase activity as percentage of non-treated control ([1]; 10 µM, α-MSH plus IBMX co-stimulated) [%] | inhibition of cellular tyrosinase activity compared with kojic acid ([1]; analog at 5 µM) | enhancement of inhibitory activity relative to analog 4 (mushroom tyrosinase; ratio of IC50 values versus analog 4) [fold]
1 | O=C1/C(=C/c2ccc(O)cc2)SC(=S)N1c1ccccc1 [Analog 1, (Z)-5-(4-Hydroxybenzylidene)-3-phenyl-2-thioxothiazolidin-4-one] | 1.45 ± 0.04 | 12 | 56.3 | as effective as kojic acid at 20 µM | more than kojic acid at 20 µM |  |  |  |  |  | 
2 | O=C1/C(=C/c2ccc(O)c(O)c2)SC(=S)N1c1ccccc1 [Analog 2, (Z)-5-(3,4-Dihydroxybenzylidene)-3-phenyl-2-thioxothiazolidin-4-one] | 1.38 ± 0.11 |  |  |  |  | 4.1 | 89.6 | as effectively as kojic acid at 10 µM | < 100 | significantly inhibited tyrosinase activity more than kojic acid did at 20 µM | 
3 | O=C1/C(=C/c2ccc(O)cc2O)SC(=S)N1c1ccccc1 [Analog 3, (Z)-5-(2,4-Dihydroxybenzylidene)-3-phenyl-2-thioxothiazolidin-4-one] | 0.59 ± 0.03 | 29 | 61.3 | as effective as kojic acid at 20 µM | more than kojic acid at 20 µM |  |  |  |  |  | 
4 | COc1ccc(/C=C2\SC(=S)N(c3ccccc3)C2=O)cc1O [Analog 6, (Z)-5-(3-Hydroxy-4-methoxybenzylidene)-3-phenyl-2-thioxothiazolidin-4-one] | 1.88 ± 0.7 |  | 50.9 | as effective as kojic acid at 20 µM | more than kojic acid at 20 µM |  |  |  |  |  | 43
